Consider three substances from publication PMC7409209, “Biosynthesis and Antimicrobial Activity of Pseudodesmin and Viscosinamide Cyclic Lipopeptides Produced by Pseudomonads Associated with the Cocoyam Rhizosphere” (Microorganisms, 2020).

Assay [1] has as its system R. solani AG2-2 CuHav-Rs18. In words: Fungal plug-CLP droplet assay (growth inhibition and microscopy). The format is cell-based. The text has this:
(§1) The cocoyam rhizosphere isolate, P. myriotylum CMR1 [42], was maintained on Potato Dextrose Agar (PDA) for three days prior to use. The bean root rot pathogen, R. solani AG2-2 CuHav-Rs18 [43], was maintained on the same media for four days before use. The fungal plug-CLP method was used. Sterile microscopic glass slides were covered with a thin, flat layer of water agar (Bacto agar; Difco) and placed in a plastic Petri dish containing a moist sterile filter paper. An agar plug (diameter = 5 mm) taken from an actively growing colony of R. solani or P. myriotylum and placed on top at the center of each glass slide. Stock solutions of purified CLPs were made by dissolution in Dimethyl sulfoxide (DMSO). Serial dilutions of […], 1 µM, 10 µM, 25 µM and 50 µM were prepared using sterile milliQ water. For each dilution, two droplets (15 μL each) of purified CLP (WLIP, pseudodesmin or viscosinamide) were placed on two sides of the glass slide (about 2 cm from the fungal plug). For the control treatment, 0.5% DMSO was used. All plates were incubated for 48 h (P. myriotylum) or 72 h (R. solani) at 28 °C before evaluation under an Olympus BX51 microscope. The images were processed using TopView software. Using a vernier caliper, the inhibition zones were measured as the distance between the CLP droplet and the growing edge of the pathogen. The growth inhibition effect of pure compounds towards both plant pathogens was expressed relative to the mycelial growth in the control. Five replicates of each slide were used. Representative photos are shown.

The test system of the next assay is P. myriotylum CMR1. The assay is described as above. The format is cell-based, Pythium myriotylum. The conditions noted are these: for Effect on growth of P. myriotylum mycelium (inhibition zone): all concentrations tested (100 nM, 1, 10, 25, 50 µM), 48 h, 28 °C, n = 5.
Description: as §1

Assay [2] concerns six Gram-positive bacterial strains. The conditions noted are these: cited from earlier work. The text has this: Viscosinamide and pseudodesmin CLPs are neutral, have similar amino acid (AA) composition and only differ from each other by the stereochemistry on the 5th AA [30]. […] A recent study tested the antibacterial activity of 20 novel synthesized pseudodesmin A analogs and reported a mode of action determined by the macrocycle closed by an ester bond and the critical length of the β-OH fatty acid chain capping the N-terminus.

The subject of another assay is Pythium ultimum. Particulars: cited from earlier work. The text has this:
(§2) Antimicrobial activities of Viscosin-group CLPs have been reported, including antibacterial activity. […] When challenged with viscosinamide, cellular changes were detected in the mycelia of both P. ultimum and R. solani.

Assay [3] deals with R. solani. The conditions noted are these: cited from earlier work.
Description: as §2

For the next assay, the system named is P. myriotylum. Description: Pathogen perception experiment (one CLP droplet). Format: cell-based, Pythium myriotylum. Particulars: one 15 µL CLP droplet 2 cm from the plug, other side blank. The procedure:
(§3) For pathogen perception experiments, the afore-described plug-CLP droplet method was employed with slight modifications. Only one 15 µL CLP droplet was introduced 2 cm away from the fungal plug, while the other side of the plug remained blank. Results were assessed by observing whether or not the pathogen only grew towards the CLP droplet or in both directions. Pathogen-CLP interaction was evaluated microscopically and pictures were taken.

The test system of assay [4] is R. solani. In words: Pathogen perception experiment (one CLP droplet). Format: cell-based. Particulars: one 15 µL CLP droplet 2 cm from the plug, other side blank. The procedure:
as §3

The mark [5] stands for this setting: purified viscosinamide produced by P. fluorescens DR54.

pseudodesmin A: the “Visual inhibition zone, R. solani AG 2-2” value in assay [1] (100 nM, 72 h, 28 °C) is “visual inhibition zone”; in assay [1] (higher concentrations of 1, 10, 25 and 50 µM, compared with 100 nM) it was “became enhanced”. Moreover, in assay [1] (0.1, 1, 10, 25 and 50 µM), the “Hyphal morphology of R. solani (microscopy)” value (“Hyphal morphology of R. solani” for short) was “CLP evasion by the pathogen, hyphae distortion and the disintegration of hyphae with debris observed on the slide”. Moreover, the “Hyphal morphology of P. myriotylum (microscopy)” value in the assay on P. myriotylum CMR1 (100 nM, 10 µM and 25 µM) is “increased/hyper branching, hyphal distortion and CLP evasion”. In addition, in the assay on P. myriotylum CMR1, the “Effect on growth of P. myriotylum mycelium (inhibition zone)” value is recorded as “significantly inhibited pathogen growth”. In addition, the “Antibacterial activity, pseudodesmin compared with viscosinamide” value in assay [2] is “equal activity”.

Consider viscosinamide A, for which the “Hyphal morphology of R. solani” value in assay [1] (50 µM) is “mycelia distortion and disintegration was observed in combination with a coordinated formation of melanized structures by multiple primary hyphae”; in assay [1] (all concentrations tested except 50 µM), “CLP evasion, hyphal distortion and the rupturing of contents”. Besides, the “Visual inhibition zone, R. solani AG 2-2” value in assay [1] (all concentrations tested (100 nM-50 µM)) was “no visual inhibition zone was observed in treatments with viscosinamide except at 10 µM”. The “Hyphal morphology of P. myriotylum (microscopy)” value in the assay with P. myriotylum CMR1 (50 µM) was “enhanced elongation of primary mycelium and the formation of convergent structures by mycelia”. Moreover, in the assay with P. myriotylum CMR1, the “Effect on growth of P. myriotylum mycelium (inhibition zone)” value was “enhanced the growth of P. myriotylum mycelium without any visible inhibition zone”. Further, in the assay on Pythium ultimum (fluorescent stains), the “Cellular changes in mycelia of P. ultimum” value is “extensive branching, increased hyphal septation and swelling and decreased the hydrophobicity of cell walls and membranes”. In the assay on Pythium ultimum (setting [5]), the “Effect on growth of Pythium ultimum” value is “reduced fungal growth and the aerial mycelium development”. Further, in the assay on R. solani [3] (fluorescent stains), the “Cellular changes in mycelia of R. solani” value is “extensive branching, increased hyphal septation and swelling and decreased the hydrophobicity of cell walls and membranes”. Further, the “Effect on growth of R. solani” value in the assay with R. solani [3] (setting [5]) is “reduced fungal growth and the aerial mycelium development”. For the same substance, in assay [2], the “Antibacterial activity, pseudodesmin compared with viscosinamide” value was “equal activity”.

“White Line-Inducing Principle [WLIP, reference compound]”: the “Visual inhibition zone, R. solani AG 2-2” value in assay [1] (100 nM, 72 h, 28 °C) was “slight inhibition zone”; in assay [1] (highest concentration (50 µM)) it was “strong inhibition”; in assay [1] (intermediate concentrations), “unclear”. The “Hyphal morphology of R. solani” value is given as “increased branching as they grew in the direction of the compound” in assay [1] (hyphae growing towards the compound, concentration not specified) and “disintegration of hyphae was observed” in assay [1] (upon contact with the compound, concentration not specified). Also, the “Perception of the CLP by P. myriotylum (direction of growth)” value in the assay on P. myriotylum is listed as “grew evenly on sides with or without the CLP”. The “Effect on growth of P. myriotylum mycelium (inhibition zone)” value with P. myriotylum CMR1 is “visual inhibition zones that could not be easily measured”. Moreover, the “Hyphal morphology of P. myriotylum (microscopy)” value in the assay with P. myriotylum CMR1 (concentration not specified) is “hyphal disintegration, timely evasion and an absence of branching”. The “Perception of the CLP by R. solani (direction of growth)” value with R. solani [4] is “appeared not to recognize WLIP but grew towards it until hyphal disintegration occurred”.
